This is an account of results in US9648880B2, “Antifungal agents and uses thereof” (University of Massachusetts, priority 2012, dated 2017).

Entries after “also recorded” stand apart in the source; their conditions may differ.

The test system of assay [1] is C. albicans hyphae formation. The experiment in a line: filamentation assay (hyphal morphogenesis). It counts as cell-based, Candida albicans. Particulars: 50 μM overlay; 37° C., 2 days.
Another assay deals with SC5314. Put plainly: growth rate in liquid culture. Particulars: 50 μM; liquid YPD, 30° C. The class given is cell-based, Candida albicans. On the procedure: FIGS. 8A-8B. Characterization of compound #4. FIG. 8A is a graphs showing the IC50 for compound #4 measured using GFP adhesion assay. Assay performed as in FIG. 1D with the indicated concentrations of compound #4. Mean and standard deviations from 4 replicate well measurements are shown. FIG. 8B is a graph showing the effect of compound #4 on growth rate of SC5314 in liquid culture. SC5314 was grown in liquid YPD in a 30° C. shaker in the presence of 1% DMSO or compounds #4, 5, 6, 7 or 8 at 50 μM and the OD600 of the culture was measured at the indicated times. Cultures were also observed in the microscope, and we confirmed that the cells retained the budding yeast morphology during the course of this experiment.
We performed several additional experiments to characterize the ability of compound #4 to inhibit Candida adhesion to polystyrene. […] Second, we tested whether compound #4 affects C. albicans cell growth rate. […] Therefore, compound #4 slows C. albicans growth but is minimally toxic to human epithelial cells (FIG. 2C), properties that are desirable for candidate antifungal compounds.
Overnight cultures of […] were diluted to 0.1 OD/ml in fresh YPD and grown in a 30° C. shaker at 200 RPM in the presence of […] of compounds or 1% DMSO. OD 600 nm was measured during the time course to evaluate growth rate.

Another assay relates to C. albicans SC5314 cells. The experiment in a line: pretreatment of C. albicans cells, then adhesion assay. To be noted: 25 μM; alamarBlue or GFP detection. The class given is cell-based, Candida albicans. Here is the method:
FIGS. 11A-11D. Compound #4 can coat surfaces and reduce subsequent fungal adhesion. […] is a graph showing the results of pretreatment of polystyrene with candidate compounds. Indicated compounds at 50 μM were incubated in polystyrene 96-well plates overnight. Wells were washed three times with 100 μl of PBS. C. albicans adhesion was then measured using the vital dye alamarBlue, with no additional drug treatment. FIG. 11B is a graph showing titration of compounds #1, 4 and 9 for pre-binding to polystyrene. Indicated concentrations of compounds were pre-incubated with polystyrene plates as above prior to the adhesion assays. FIG. 11C is a graph showing the inhibition of adhesion by pretreatment of C. albicans SC5314 cells with compound #4 prior to introduction to plastic. SC5314 cells were treated with 25 μM compound #4 or DMSO in liquid culture prior to their introduced into polystyrene plates. Cells were washed with PBS prior to resuspension into SCM and seeding into 96-well plates for adhesion assays using alamarBlue detection of remaining cells. […] FIG. 11D is a graph showing the results of an assay performed as in FIG. 11C, except that SC5314-GFP cells were used, and then detected via fluorescence measurement. edt1 indicates non-adherent mutant cells, PBS indicates background fluorescence in absence of cells. […]
For orientation: The colour change of resazurin is a common sign of viable cells or microbes.

In assay [2] the test system is C. albicans SC5314 on excised murine vaginal mucosal tissue. Put plainly: ex vivo mouse vaginal mucosal infection (VVC). Particulars: 24 h. On the procedure: FIG. 6A-6B. Effects on metazoan hosts. FIG. 6A is a graph showing the lifespan of C. elegans exposed to C. albicans treated with 12.5 μM compound #4 (lower graph line) or 12.5 μM fluconazole (upper graph line) compared to untreated (middle graph line). […] FIG. 6B is a series of photographs showing microscopic analysis of ex vivo vaginal mucosal biofilm formation. Mice were administered estrogen and vaginae were harvested. Tissues were either uninfected, or pretreated with DMSO or 50 μM compound #4, and then inoculated with C. albicans SC5314 (10^6 blastoconidia) and incubated for 24 h. Tissues were bisected and processed for scanning electron microscopy (SEM), or confocal microscopy (CM) after staining with Calcofluor to detect yeast (blue) and Concavalin A to visualize extracellular matrix (red). SEM images were taken at 1000× magnification, and CM images at 600× magnification.
In this assay, excised murine vaginal mucosal tissue is tested as a substrate for infection by Candida cells, providing a rapid and simple method for optimizing treatment conditions prior to in vivo infection assays. The other readout in the assay is a measure of the number of viable fungal cells, expressed as colony forming units (CFU).
These ex vivo infections were performed as described (Harriott, 2010).

Assay [3] concerns C. elegans infected with C. albicans. The experiment in a line: C. elegans pathogenesis assay. It counts as in vivo, Caenorhabditis elegans. To be noted: 12.5 μM. Here is the method:
We therefore tested whether compound #4 can alter fungal infections in two in vivo settings. First, we performed pathogenesis assays in which nematodes (Caenorhabditis elegans) are infected with C. albicans, resulting in killing of the nematode host (Jain, 2009; Okoli, 2009). We used this assay to test whether compound #4 might have a protective effect, exposing C. elegans to Candida albicans and either DMSO vehicle, the commonly used antifungal drug fluconazole at 12.5 μM, or compound #4 at the same concentration. […] Therefore, consistent with its in vitro activities, compound #4 functions as an antifungal agent in this model infection system.
Three worms in the L3/L4 stage were transferred to each of two NGM agar plates containing E. coli OP50 and grown at 20° C. for four days. On the day of the experiment, worms were washed off the plates with M9 buffer and centrifuged at 900×g for 2 min. The supernatant was removed, and the worms were then resuspended in a bleach solution (1:4 dilution of commercial bleach (5.25%) diluted in 0.25 M sodium hydroxide). The worm suspension was mixed gently by inversion for 3 min, and centrifuged for 2 min at 2,000×g. The pellet containing the eggs was washed with M9 buffer and centrifuged at 2,000×g for 2 min and then resuspended in 500 μl M9 buffer. […]

`Cc1ccc(C(=O)N2CCN(c3ccc([N+](=O)[O-])cc3)CC2)cc1Cl` [Compound 4]: the “wrinkled colony morphology on solid Spider media” value in assay [1] was “abolished”. In the assay with SC5314, the “C. albicans cell growth rate (doubling time)” value is given as “reduced the doubling time”. In addition, the “adhesion of pre-treated cells” value with C. albicans SC5314 cells is “could reduce adhesion of pre-treated cells”. The CFU recovered entry in assay [2] (50 μM pretreatment) is “did not observe significant differences”. Besides, in assay [2] (50 μM), the “extracellular matrix (Concavalin A staining)” value is reported as “still formed a carbohydrate-rich extracellular matrix” and the “hyphae formation or ECM production” value is recorded as “only partially inhibits hyphae formation or ECM production”. Moreover, in assay [3], the “lifespan of infected worms” value was “significantly increased survival; also recorded: increased the lifespan of the infected worms”.
